Test results published in PubChem BioAssay AID1963829 (Molecular Pharmacology Branch, DTP, NCI, 2024).

Each compound was assayed on 935938-334-R-J1-PDC complex spheroid viability (assay: Anticancer human tumor 935938-334-R-J1-PDC patient-derived small intestine adenocarcinoma cell line growth inhibition [POLQ]). Conditions: second compound 10 µM; first compound 0.0316 µM; stronger effect = lower value.
Procedure, shortened: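 Complex spheroid viability model combining PDC tumour cells with endothelial (HUVEC) and MSC stromal cells. Novobiocin, ART-558 or RP6685 were tested singly and in combination with standard and investigational anticancer drugs. Each was titrated in half-log steps from near clinical Cmax, or from 10 microM where Cmax was unknown.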
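Further: spheroids exposed to drugs for seven days before viability read; 100% = DMSO vehicle control wells.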

Compound	viability, T/C
CCCS(=O)(=O)Nc1ccc(F)c(C(=O)c2c[nH]c3ncc(-c4ccc(Cl)cc4)cc23)c1F + Cc1cccc(N(C)C(=O)C2C(O)CCN2c2nc(C)cc(C(F)(F)F)c2C#N)c1	106%
COc1ccc([C@@H](O)c2cc(-c3ncnc4cc(N5CCOCC5)ccc34)c(F)cc2Cl)nn1 + Cc1cccc(N(C)C(=O)C2C(O)CCN2c2nc(C)cc(C(F)(F)F)c2C#N)c1	103%
CC(C)n1c(=O)n(C)c2cnc3cc(F)c(-c4ccc(OCCCN5CCCCC5)nc4)cc3c21 + Cc1cccc(N(C)C(=O)C2C(O)CCN2c2nc(C)cc(C(F)(F)F)c2C#N)c1	105%
COc1cccc(OCCCN)c1-c1cc(Nc2cnc(C#N)cn2)n[nH]1 + Cc1cccc(N(C)C(=O)C2C(O)CCN2c2nc(C)cc(C(F)(F)F)c2C#N)c1	57.9%

Same assay, conditions: second compound 10 µM; first compound 0.1 µM; stronger effect = lower value

Compound	viability, T/C
O=C(Nc1ccc(O)c(NS(=O)(=O)c2ccc(F)cc2)c1)c1ccc(-c2ccccc2)cc1 + COC1C(OC(N)=O)C(O)C(Oc2ccc3c(O)c(NC(=O)c4ccc(O)c(CC=C(C)C)c4)c(=O)oc3c2C)OC1(C)C	99.7%
O=c1[nH]cc(F)c(=O)[nH]1 + Cc1cccc(N(C)C(=O)C2C(O)CCN2c2nc(C)cc(C(F)(F)F)c2C#N)c1	142%
CC1COCCN1c1cc(C2(S(C)(=N)=O)CC2)nc(-c2ccnc3[nH]ccc23)n1 (configuration not stated) + Nc1ccc(C#CCN(C(=O)Cc2ncc(C(F)(F)F)cc2C(F)(F)F)c2ccc(F)cc2)nn1	111%
CCCS(=O)(=O)Nc1ccc(F)c(C(=O)c2c[nH]c3ncc(-c4ccc(Cl)cc4)cc23)c1F + Cc1cccc(N(C)C(=O)C2C(O)CCN2c2nc(C)cc(C(F)(F)F)c2C#N)c1	109%
COc1ccc([C@@H](O)c2cc(-c3ncnc4cc(N5CCOCC5)ccc34)c(F)cc2Cl)nn1 + Cc1cccc(N(C)C(=O)C2C(O)CCN2c2nc(C)cc(C(F)(F)F)c2C#N)c1	80.8%
CC(C)n1c(=O)n(C)c2cnc3cc(F)c(-c4ccc(OCCCN5CCCCC5)nc4)cc3c21 + Cc1cccc(N(C)C(=O)C2C(O)CCN2c2nc(C)cc(C(F)(F)F)c2C#N)c1	80.6%
COc1cccc(OCCCN)c1-c1cc(Nc2cnc(C#N)cn2)n[nH]1 + Cc1cccc(N(C)C(=O)C2C(O)CCN2c2nc(C)cc(C(F)(F)F)c2C#N)c1	11.6%

Same assay, conditions: second compound 10 µM; first compound 0.316 µM; stronger effect = lower value

Compound	viability, T/C
O=C(Nc1ccc(O)c(NS(=O)(=O)c2ccc(F)cc2)c1)c1ccc(-c2ccccc2)cc1 + COC1C(OC(N)=O)C(O)C(Oc2ccc3c(O)c(NC(=O)c4ccc(O)c(CC=C(C)C)c4)c(=O)oc3c2C)OC1(C)C	128%
O=c1[nH]cc(F)c(=O)[nH]1 + Cc1cccc(N(C)C(=O)C2C(O)CCN2c2nc(C)cc(C(F)(F)F)c2C#N)c1	87.1%
CC1COCCN1c1cc(C2(S(C)(=N)=O)CC2)nc(-c2ccnc3[nH]ccc23)n1 (configuration not stated) + Nc1ccc(C#CCN(C(=O)Cc2ncc(C(F)(F)F)cc2C(F)(F)F)c2ccc(F)cc2)nn1	137%
CCCS(=O)(=O)Nc1ccc(F)c(C(=O)c2c[nH]c3ncc(-c4ccc(Cl)cc4)cc23)c1F + Cc1cccc(N(C)C(=O)C2C(O)CCN2c2nc(C)cc(C(F)(F)F)c2C#N)c1	127%
COc1ccc([C@@H](O)c2cc(-c3ncnc4cc(N5CCOCC5)ccc34)c(F)cc2Cl)nn1 + Cc1cccc(N(C)C(=O)C2C(O)CCN2c2nc(C)cc(C(F)(F)F)c2C#N)c1	85.6%
CC(C)n1c(=O)n(C)c2cnc3cc(F)c(-c4ccc(OCCCN5CCCCC5)nc4)cc3c21 + Cc1cccc(N(C)C(=O)C2C(O)CCN2c2nc(C)cc(C(F)(F)F)c2C#N)c1	90.5%
COc1cccc(OCCCN)c1-c1cc(Nc2cnc(C#N)cn2)n[nH]1 + Cc1cccc(N(C)C(=O)C2C(O)CCN2c2nc(C)cc(C(F)(F)F)c2C#N)c1	11.9%

Same assay, conditions: second compound 10 µM; first compound 1 µM; stronger effect = lower value

Compound	viability, T/C
O=C(Nc1ccc(O)c(NS(=O)(=O)c2ccc(F)cc2)c1)c1ccc(-c2ccccc2)cc1 + COC1C(OC(N)=O)C(O)C(Oc2ccc3c(O)c(NC(=O)c4ccc(O)c(CC=C(C)C)c4)c(=O)oc3c2C)OC1(C)C	84.4%
O=c1[nH]cc(F)c(=O)[nH]1 + Cc1cccc(N(C)C(=O)C2C(O)CCN2c2nc(C)cc(C(F)(F)F)c2C#N)c1	95%
CC1COCCN1c1cc(C2(S(C)(=N)=O)CC2)nc(-c2ccnc3[nH]ccc23)n1 (configuration not stated) + Nc1ccc(C#CCN(C(=O)Cc2ncc(C(F)(F)F)cc2C(F)(F)F)c2ccc(F)cc2)nn1	75.3%
CCCS(=O)(=O)Nc1ccc(F)c(C(=O)c2c[nH]c3ncc(-c4ccc(Cl)cc4)cc23)c1F + Cc1cccc(N(C)C(=O)C2C(O)CCN2c2nc(C)cc(C(F)(F)F)c2C#N)c1	146%
COc1ccc([C@@H](O)c2cc(-c3ncnc4cc(N5CCOCC5)ccc34)c(F)cc2Cl)nn1 + Cc1cccc(N(C)C(=O)C2C(O)CCN2c2nc(C)cc(C(F)(F)F)c2C#N)c1	59.9%
CC(C)n1c(=O)n(C)c2cnc3cc(F)c(-c4ccc(OCCCN5CCCCC5)nc4)cc3c21 + Cc1cccc(N(C)C(=O)C2C(O)CCN2c2nc(C)cc(C(F)(F)F)c2C#N)c1	84.6%
COc1cccc(OCCCN)c1-c1cc(Nc2cnc(C#N)cn2)n[nH]1 + Cc1cccc(N(C)C(=O)C2C(O)CCN2c2nc(C)cc(C(F)(F)F)c2C#N)c1	9.17%

Same assay, conditions: second compound 10 µM; first compound 3.16 µM; stronger effect = lower value

Compound	viability, T/C
O=C(Nc1ccc(O)c(NS(=O)(=O)c2ccc(F)cc2)c1)c1ccc(-c2ccccc2)cc1 + COC1C(OC(N)=O)C(O)C(Oc2ccc3c(O)c(NC(=O)c4ccc(O)c(CC=C(C)C)c4)c(=O)oc3c2C)OC1(C)C	97.2%
O=c1[nH]cc(F)c(=O)[nH]1 + Cc1cccc(N(C)C(=O)C2C(O)CCN2c2nc(C)cc(C(F)(F)F)c2C#N)c1	68%
CC1COCCN1c1cc(C2(S(C)(=N)=O)CC2)nc(-c2ccnc3[nH]ccc23)n1 (configuration not stated) + Nc1ccc(C#CCN(C(=O)Cc2ncc(C(F)(F)F)cc2C(F)(F)F)c2ccc(F)cc2)nn1	36.8%
CCCS(=O)(=O)Nc1ccc(F)c(C(=O)c2c[nH]c3ncc(-c4ccc(Cl)cc4)cc23)c1F + Cc1cccc(N(C)C(=O)C2C(O)CCN2c2nc(C)cc(C(F)(F)F)c2C#N)c1	149%
COc1ccc([C@@H](O)c2cc(-c3ncnc4cc(N5CCOCC5)ccc34)c(F)cc2Cl)nn1 + Cc1cccc(N(C)C(=O)C2C(O)CCN2c2nc(C)cc(C(F)(F)F)c2C#N)c1	48.9%
CC(C)n1c(=O)n(C)c2cnc3cc(F)c(-c4ccc(OCCCN5CCCCC5)nc4)cc3c21 + Cc1cccc(N(C)C(=O)C2C(O)CCN2c2nc(C)cc(C(F)(F)F)c2C#N)c1	76.9%

Same assay, conditions: second compound 10 µM; first compound 10 µM; stronger effect = lower value

Compound	viability, T/C
O=C(Nc1ccc(O)c(NS(=O)(=O)c2ccc(F)cc2)c1)c1ccc(-c2ccccc2)cc1 + COC1C(OC(N)=O)C(O)C(Oc2ccc3c(O)c(NC(=O)c4ccc(O)c(CC=C(C)C)c4)c(=O)oc3c2C)OC1(C)C	67.6%
O=c1[nH]cc(F)c(=O)[nH]1 + Cc1cccc(N(C)C(=O)C2C(O)CCN2c2nc(C)cc(C(F)(F)F)c2C#N)c1	65.9%
CC1COCCN1c1cc(C2(S(C)(=N)=O)CC2)nc(-c2ccnc3[nH]ccc23)n1 (configuration not stated) + Nc1ccc(C#CCN(C(=O)Cc2ncc(C(F)(F)F)cc2C(F)(F)F)c2ccc(F)cc2)nn1	16%
CCCS(=O)(=O)Nc1ccc(F)c(C(=O)c2c[nH]c3ncc(-c4ccc(Cl)cc4)cc23)c1F + Cc1cccc(N(C)C(=O)C2C(O)CCN2c2nc(C)cc(C(F)(F)F)c2C#N)c1	42.1%
COc1ccc([C@@H](O)c2cc(-c3ncnc4cc(N5CCOCC5)ccc34)c(F)cc2Cl)nn1 + Cc1cccc(N(C)C(=O)C2C(O)CCN2c2nc(C)cc(C(F)(F)F)c2C#N)c1	28.4%
CC(C)n1c(=O)n(C)c2cnc3cc(F)c(-c4ccc(OCCCN5CCCCC5)nc4)cc3c21 + Cc1cccc(N(C)C(=O)C2C(O)CCN2c2nc(C)cc(C(F)(F)F)c2C#N)c1	80.1%
